Measured values published in patent US9879243B2, “Culture medium for cell growth and transfection” (LIFE TECHNOLOGIES CORPORATION, priority 2001, dated 2018).

Assays:
Sp2/0 cells = experiment: Effect of replacement compounds on the growth of Sp2/0 cells in CD Hybridoma medium without transferrin, three passages; type: cell-based; details: third passage
293 cells = experiment: Effect of replacement compounds on the growth of 293 cells in 293 SFM without transferrin, three passages; type: cell-based, human; details: third passage, control 5 μg/mL human holo-transferrin
CHO cells = experiment: Effect of replacement compounds on the growth of CHO cells in CD CHO medium without transferrin, three passages; type: cell-based, Chinese hamster; details: third passage
How it was run: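 CHO cells seeded at 1×10^5 viable cells/mL in transferrin-free CD CHO medium, 37 °C, 8% CO2, subcultured every 4 days for three passages. Compounds tested alone or complexed with ferric chloride or ferrous sulfate at 25, 50 and 100 μM; growth as mean percentage of the 5 μg/mL holo-transferrin control at the third passage, duplicate cultures.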

[1] = 25 μM, control 5 μg/mL human holo-transferrin
[2] = 25 μM, iron equimolar where combined

Diethylenetriamine Penta-Acetic Acid•Ferrous Sulfate
mean percentage of control growth (Sp2/0 cells; [1]): 54 percentage of control growth
mean percentage of control growth (Sp2/0 cells; 50 μM): 90 percentage of control growth
mean percentage of control growth (Sp2/0 cells; 100 μM): 91 percentage of control growth
mean percentage of control growth (293 cells; [2]): 77 percentage of control growth
mean percentage of control growth (293 cells; 50 μM): 107 percentage of control growth
mean percentage of control growth (293 cells; 100 μM): 85 percentage of control growth
mean percentage of control growth (CHO cells; [1]): 135 percentage of control growth
mean percentage of control growth (CHO cells; 50 μM): 137 percentage of control growth
mean percentage of control growth (CHO cells; 100 μM): 147 percentage of control growth

CCc1occc(=O)c1O [2-Ethyl-3-Hydroxy-4-Pyrone]
mean percentage of control growth (Sp2/0 cells; [1]): 0 percentage of control growth
mean percentage of control growth (Sp2/0 cells; 50 μM): 75 percentage of control growth
mean percentage of control growth (Sp2/0 cells; 100 μM): 116 percentage of control growth
mean percentage of control growth (293 cells; [2]): 59 percentage of control growth
mean percentage of control growth (293 cells; 50 μM): 120 percentage of control growth
mean percentage of control growth (293 cells; 100 μM): 126 percentage of control growth
mean percentage of control growth (CHO cells; [1]): 9 percentage of control growth
mean percentage of control growth (CHO cells; 50 μM): 60 percentage of control growth
mean percentage of control growth (CHO cells; 100 μM): 113 percentage of control growth
